Reference: patent publication US20200181121A1, “Cocrystal of Telmisartan and Hydrochlorothiazide” (SHANGHAI INSTITUTE OF MATERIA MEDICA, CHINESE ACADEMY OF …, priority 2017, published 2020)

Assay: Accelerated stability test (ICH Q1E), change of the content
Type: physicochemical
Settings: 40°C±2°C, RH 75±5%, polyethylene-sealed bag
Experimental: According to the description in “Stability Data Evaluation” of ICH guidelines Q1E, a comparison of accelerated stability test (at 40° C.±2° C., RH 75±5%) of cocrystal of hydrochlorothiazide and telmisartan obtained in Example 1 with that of telmisartan or hydrochlorothiazide itself was conducted respectively. The cocrystal of telmisartan and hydrochlorothiazide, telmisartan, and hydrochlorothiazide were double packaged using the polyethylene-sealed bag respectively, stood for 1, 2 or 3 months under the accelerated stability test conditions (at 40° C.±2° C., RH 75±5%). Then the samples were taken and measured for the change of the content.

| Compound | content of hydrochlorothiazide (0 month) [%] | content of hydrochlorothiazide (1 month) [%] | content of hydrochlorothiazide (2 months) [%] | content of hydrochlorothiazide (3 months) [%] | content of telmisartan (0 month) [%] | content of telmisartan (1 month) [%] | content of telmisartan (2 months) [%] | content of telmisartan (3 months) [%] |
| --- | --- | --- | --- | --- | --- | --- | --- | --- |
| NS(=O)(=O)c1cc2c(cc1Cl)NCNS2(=O)=O [Hydrochlorothiazide, 6-chloro-3,4-dihydro-2H-1,2,4-benzothiadiazine-7-sulfonamido-1,1-dioxide] | 100 | 97.37 | 96.34 | 95.28 |  |  |  |  |
| CCCc1nc2c(C)cc(-c3nc4ccccc4n3C)cc2n1Cc1ccc(-c2ccccc2C(=O)O)cc1 [Telmisartan, 4′-[[2-propyl-4-methyl-6(1-methyl-benzimidazol-2-yl)-benzimidazol-1-yl]methyl]-2-biphenylcarboxylic acid] |  |  |  |  | 100 | 97.28 | 94.47 | 94.20 |
